Measured values: ChEMBL document CHEMBL4616674, “Fragment-based Differential Targeting of PPI Stabilizer Interfaces” (J Med Chem, 2020)
Values belong to the compound of their own block, whether it stands above or below them. The source made the active and inactive calls. The rule behind the calls is not given here.

Columns and labels:
[1] = target: T1, 14-3-3 protein sigma (Homo sapiens) (UniProt P31947); experiment: Binding affinity to 6x-His tagged 14-3-3-sigma (unknown origin) expressed in Escherichia coli BL21 (DE3) in presence of acetylated p53pT387 peptide by crystallography
T1 sequence (whole entry): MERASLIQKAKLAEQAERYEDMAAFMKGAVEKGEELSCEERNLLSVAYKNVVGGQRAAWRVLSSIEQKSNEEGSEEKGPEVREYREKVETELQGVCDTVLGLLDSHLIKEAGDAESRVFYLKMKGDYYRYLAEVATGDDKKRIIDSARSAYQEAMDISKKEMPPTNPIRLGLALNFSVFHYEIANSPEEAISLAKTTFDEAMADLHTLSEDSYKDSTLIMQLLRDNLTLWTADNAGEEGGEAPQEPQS

[2] = target: T1, 14-3-3 protein sigma (Homo sapiens); experiment: Binding affinity to 6x-His tagged 14-3-3-sigma (unknown origin) expressed in Escherichia coli BL21 (DE3) at 500 uM in presence of p53pT387 peptide by WaterLOGSY NMR spectroscopy
[3] = target: T1, 14-3-3 protein sigma (Homo sapiens); experiment: Binding affinity to 6x-His tagged 14-3-3-sigma (unknown origin) expressed in Escherichia coli at 1 mM by SPR assay
[4] = target: T1, 14-3-3 protein sigma (Homo sapiens); experiment: Binding affinity to 6x-His tagged 14-3-3-sigma (unknown origin) expressed in Escherichia coli at 1 mM by fluorescence polarization assay
[5] = target: T1, 14-3-3 protein sigma (Homo sapiens); experiment: Binding affinity to 15N2H labeled and 6x-His tagged 14-3-3-sigma (unknown origin) expressed in Escherichia coli assessed as induction of broadening (intensity decrease) and chemical shift value perturbation at 2000 uM in presence of p53pT387 peptide by 1H-15N TROSY-HSQC NMR spectroscopy
[6] = target: T1, 14-3-3 protein sigma (Homo sapiens); experiment: Binding affinity to 15N2H labeled and 6x-His tagged 14-3-3-sigma (unknown origin) expressed in Escherichia coli assessed as induction of broadening (intensity decrease) and chemical shift value perturbation at 2000 uM in absence of p53pT387 peptide by 1H-15N TROSY-HSQC NMR spectroscopy

Activity [1]: Active
SMILES: N=C(N)c1cc(-c2ccccc2)c(-c2c[nH]cn2)s1

Activity [1]: Active
SMILES: CC(CN)Nc1cccc2cc(C(=N)N)sc12 (stereo not drawn)

Activity [2]: Active
Activity [3]: Active
Activity [4]: Active
Activity [5]: Active
Activity [6]: Active
SMILES: CC(C)Oc1ccc(C(=O)NCCN)c2cc(C(=N)N)sc12

Activity [1]: Active
SMILES: CC(CN)Nc1cc(CS)cc2sc(C(=N)N)cc12 (stereo not drawn)
